The results in this text go back to ChEMBL document CHEMBL5608211, “Antibody-drug conjugates for targeted cancer therapy: Recent advances in potential payloads” (Eur J Med Chem, 2024).

In brackets after ≈: the same amount, converted by molar mass.

In assay [1] the test system is K562. Briefly: Antiproliferative activity against human K562 cells assessed as inhibition of cell growth incubated for 5 days by WST-1 assay. It counts as functional, cell-based. Conditions: K562, 120 h.
The test system of assay [2] is SK-BR-3. Kind of assay: Cytotoxicity against human SK-BR-3 cells incubated for 4 to 7 days hrs by CellTiter-Glo luminescent assay. It counts as functional, cell-based. Background: Cellular ATP, detected with luciferase, serves as a proxy for viable cell number.
Assay [3] relates to DEL. Kind of assay: Cytotoxicity against human DEL cells assessed as inhibition of cell growth incubated for 4 days by CellTiter-Glo luminescent assay. Format: functional, cell-based. Particulars: 96 h.
Assay [4] relates to MOLT-4. Briefly: Cytotoxicity against human MOLT-4 cells assessed as inhibition of cell growth incubated for 72 hrs by XTT assay. Format: functional, cell-based. Particulars: MOLT-4, 72 h.
Assay [5] deals with LoVo. Kind of assay: Cytotoxicity against human LoVo cells assessed as inhibition of cell growth incubated for 72 hrs by Promega CellTiter-Glo assay. It counts as functional, cell-based.
The subject of assay [6] is MOLM-13. Briefly: Growth inhibition of human MOLM-13 cells incubated for 5 days by PrestoBlue reagent assay. It counts as functional. Conditions: MOLM-13, 120 h, time 5 day.
In assay [7] the test system is HT-29. Briefly: Antiproliferative activity against human HT-29 cells assessed as inhibition of cell growth incubated for 72 hrs by coulter counter method. It counts as functional, cell-based. Conditions: HT-29, 72 h.
Assay [8] relates to HepG2. Briefly: Cytotoxicity against human HepG2 cells assessed as inhibition of cell growth incubated for 72 hrs by fluorometric assay. It counts as functional, cell-based. Conditions: HepG2, 72 h.
Assay [9] relates to DLD-1. Kind of assay: Antiproliferative activity against human DLD-1 cells assessed as inhibition of cell growth incubated for 3 to 4 days. It counts as functional, cell-based.

A word on the IC50: it is the concentration needed to halve the response being measured. A word on the GI50: it is the concentration at which growth is held to half of that of the control. The low end stands for more potent growth inhibition, the high end for less potent growth inhibition.

As to `CC[C@H](C)[C@H](NC(=O)[C@H]1CCCCN1C)C(=O)N(COC(=O)CC(C)C)[C@H](C[C@@H](OC(C)=O)c1nc(C(=O)N[C@H](Cc2ccccc2)C[C@H](C)C(=O)O)cs1)C(C)C`, in assay [1], the IC50 is 0.02 ng/mL (≈ 0.0242 nM).

On to `CCCO[C@H](C[C@H](C(C)C)N(C)C(=O)[C@@H](NC(=O)[C@H]1CCCCN1C)C(C)C)c1nc(C(=O)N[C@@H](Cc2ccc(N)cc2)C[C@H](C)C(=O)O)c(CCOCc2ccccc2)s1`, for which, in assay [2], the IC50 was determined as 0.04 nM.

Consider `CC[C@@]1(O)C(=O)OCc2c1cc1n(c2=O)Cc2c-1nc1cc3c(cc1c2CN)OCO3`, for which the half-inhibitory concentration (IC50) in [3] is 0.7 nM.

For the compound `CCN(C(C)=O)[C@H]1CO[C@@H](O[C@H]2[C@H](O[C@H]3C#C/C=C\C#C[C@]4(O)CC(=O)C(NC(=O)OC)=C3/C4=C\CSC(C)=O)O[C@H](C)[C@@H](NO[C@H]3C[C@H](O)[C@H](SC(=O)c4c(C)c(I)c(O[C@@H]5O[C@@H](C)[C@H](O)[C@@H](OC)[C@H]5O)c(OC)c4OC)[C@@H](C)O3)[C@@H]2O)C[C@@H]1OC`, the half-inhibitory concentration (IC50) in assay [4] worked out at 0.00015 nM.

For `CC(C)(C)[C@H](c1cc(-c2cc(F)ccc2F)cn1Cc1ccccc1)N(CCCN)C(=O)CO`, in assay [5], the concentration for half-maximal inhibition (IC50) is under 0.03 nM.

On to `CC[C@H](C)[C@@H]([C@@H](CC(=O)N1C[C@@H](N)C[C@H]1[C@H](OC)[C@@H](C)C(=O)N[C@@H](Cc1ccccc1)C(=O)OC)OC)N(C)C(=O)[C@@H](NC(=O)[C@H](C(C)C)N(C)C)[C@H](C)N=[N+]=[N-]`, for which it took 0.057 nM to inhibit growth in [6] by half (GI50).

Regarding `CC[C@H](C)[C@H](NC(=O)[C@H]1CCCCN1C)C(=O)N(CC1CC1)[C@H](C[C@@H](OC(C)=O)c1nc(C(=O)N[C@@H](Cc2ccccc2)C[C@H](C)C(=O)O)cs1)C(C)C`, in [7], the IC50 came out at 0.055 nM.

Turning to `CC[C@H](C)[C@@H]([C@@H](CC(=O)N1C[C@@H](NC(=O)OC(C)(C)C)C[C@H]1[C@H](OC)[C@@H](C)C(=O)NCCc1c(F)cccc1F)OC)N(C)C(=O)[C@@H](NC(=O)[C@H](C(C)C)N(C)C)C(C)C`, in assay [8], the half-inhibitory concentration (IC50) was found to be 0.13 nM.

With `C=C1C[C@@H]2CC[C@@]34C[C@H]5O[C@H]6[C@@H](O3)[C@H]3O[C@H](CC[C@@H]3O[C@H]6[C@H]5O4)CC(=O)C[C@@H]3[C@@H](OC)[C@@H](C[C@H](O)CN)O[C@H]3C[C@H]3O[C@@H](CC[C@@H]1O2)C[C@@H](C)C3=C` [ERIBULIN], the half-inhibitory concentration (IC50) in assay [9] turned out to be 13 nM.
